US7855215B2, “Cyclic diaryl ureas suitable as tyrosine kinase inhibitors” (Novartis AG, priority 2004, dated 2010)

Point of comparison: `Nc1nccc(Oc2ccc3c(c2)CCCCN3C(=O)Nc2cccc(C(F)(F)F)c2)n1` [Example 7, 7-(2-Amino-pyrimidin-4-yloxy)-2,3,4,5-tetrahydro-benzo[b]azepine-1-carboxylic acid (3-trifluoromethyl-phenyl)-amide], melting point 207 °C. Against it:
- O=C(Nc1cc(Oc2ccc3c(c2)CCN3C(=O)Nc2ccc(N3CCOCC3)c(C(F)(F)F)c2)ncn1)c1cccnc1 [Example 40] — higher, 253 to 258 °C
- CN1CCN(C(=O)Nc2cc(Oc3ccc4c(c3)CCN4C(=O)Nc3ccc(N4CCOCC4)c(C(F)(F)F)c3)ncn2)CC1 [Example 42] — lower, 175 to 177 °C
- O=C(Nc1cccc(C(F)(F)F)c1)N1CCCCc2cc(Oc3cc(Cl)ncn3)ccc21 [Example 8, 7-(6-Chloro-pyrimidin-4-yloxy)-2,3,4,5-tetrahydro-benzo[b]azepine-1-carboxylic acid (3-trifluoromethyl-phenyl)-amide] — lower, 120 °C
- CN1CCN(Cc2ccc(NC(=O)N3CCCc4cc(Oc5ccnc(N)n5)ccc43)cc2C(F)(F)F)CC1 [Example 33, 6-(2-Amino-pyrimidin-4-yloxy)-3,4-dihydro-2H-quinoline-1-carboxylic acid [4-(4-methyl-piperazin-1-ylmethyl)-3-trifluoromethyl-phenyl]-amide] — lower, 120 to 123 °C
- CNc1cc(Oc2ccc3c(c2)CCCN3C(=O)Nc2ccc(C(C)(C)C)cc2)ncn1 [Example 3, 6-(6-Methylamino-pyrimidin-4-yloxy)-3,4-dihydro-2H-quinoline-1-carboxylic acid (4-tert.butyl-phenyl)-amide] — lower, 175 to 176 °C
- CC(C)Nc1cc(Oc2ccc3c(c2)CCN3C(=O)Nc2cccc(C(F)(F)F)c2)ncn1 [Example 19, 5-(6-Isopropylamino-pyrimidin-4-yloxy)-2,3-dihydro-indole-1-carboxylic acid (3-trifluormethyl-phenyl)-amide] — lower, 189 °C
- Nc1nc(Cl)cc(Oc2ccc3c(c2)CCCCN3C(=O)Nc2cccc(C(F)(F)F)c2)n1 [Example 6, 7-(2-Amino-6-chloro-pyrimidin-4-yloxy)-2,3,4,5-tetrahydro-benzo[b]azepine-1-carboxylic acid (3-trifluoromethyl-phenyl)-amide] — lower, 175 °C
- CC(C)(N)CCC(=O)Nc1cc(Oc2ccc3c(c2)CCN3C(=O)Nc2ccc(N3CCOCC3)c(C(F)(F)F)c2)ncn1 [Example 39] — higher, 211 to 214 °C
- CN1CCN(CCCNc2cc(Oc3ccc4c(c3)CCN4C(=O)Nc3cccc(C(F)(F)F)c3)ncn2)CC1 [Example 18, 5-{6-[3-(4-Methylpiperazin-1-yl)-propylamino]-pyrimidin-4-yloxy}-2,3-dihydro-indole-1-carboxylic acid (3-trifluormethyl-phenyl)-amide] — lower, 163 °C
- O=C(Nc1ccccc1)c1cc(Oc2ccc3c(c2)CCN3C(=O)Nc2cccc(C(F)(F)F)c2)ncn1 [Example 74, 5-(6-Phenylcarbamoyl-pyrimidin-4-yloxy)-2,3-dihydro-indole-1-carboxylic acid (3-trifluoromethyl-phenyl)-amide] — higher, 227 to 229 °C
- COC(=O)Nc1cc(Oc2ccc3c(c2)CCN3C(=O)Nc2ccc(N3CCOCC3)c(C(F)(F)F)c2)ncn1 [Example 41] — not separable, 206 to 209 °C
- CC(C)(CCC(=O)Nc1cc(Oc2ccc3c(c2)CCN3C(=O)Nc2ccc(N3CCOCC3)c(C(F)(F)F)c2)ncn1)[N+](=O)[O-] [Example 38] — lower, 193 to 197 °C
